Test [1] deals with mouse allogenic MLR (BALB/c mouse spleen cells stimulated with C57BL/6 mouse spleen cells). The experiment in a line: mouse allogenic mixed lymphocyte reaction (MLR), 3H-thymidine uptake. The format is cell-based. As to the method: The immunosuppressive activity of the compounds was assayed on the basis of mouse allogenic mixed lymphocyte reaction (hereinafter sometimes abbreviated as MLR). Mouse allogenic MRL was carried out using a mixed culture of BALB/c mouse (H-2^d) spleen cells as the responder cells and mitomycin C-treated C57BL/6 ([…]) mouse spleen cells as the stimulator cells in equal amounts.
The responder cells were prepared as follows:
The spleen was resected from 5- to 6-week-old BALB/c mice, and single cell suspension of spleen cells was prepared by using the RPMI1640 culture medium (containing 60 μg/ml of kanamycin sulfate, 2 mM of L-glutamine, 10 mM of N-2-hydroxyethylpiperazine-N'-2-ethanesulphonate (HEPES) and 0.1% sodium hydrogencarbonate) to which heat-inactivated fetal calf serum (hereinafter sometimes abbreviated as FCS) had been added to 5%. After hemolytic treatment, the cell suspension was adjusted to a concentration of 10^7 cells/ml with the RPMI1640 culture medium supplemented with 10^-4 M 2-mercapto-ethanol and 20% FCS, and was used as the responder cell suspension.
The stimulator cells were prepared as follows: The spleen was resected from 5- to 6-week-old male C57BL/6 mice, and a single cell suspension of spleen cells was prepared by using the RPMI1640 culture medium. After hemolytic treatment, the cells were treated with 40 μg/ml of mitomycin C at 37° C. for 60 minutes. After washing three times, the cell suspension was adjusted to a concentration of 10^7 cells/ml with the RPMI1640 culture medium supplemented with 10^-4 M 2-mercapto-ethanol and 20% FCS, and was used as the stimulator cell suspension.
The blastogenesis of lymphocytes was assayed using ^3 H-thymidine uptake as an index. That is, after termination of culture, 18.5 KBq/well of ^3 H-thymidine was added thereto and the suspension was cultured for 4 hours. Cells were harvested by a cell-harvester, and the radioactivity incorporated into the cells was determined by a liquid scintillation counter, which was used as an index of blastogenesis of lymphocytes in the mouse allogenic MLR. The suppression of the mouse allogenic MLR was evaluated by calculating the percent suppression by the following formula.
The test substance dissolved in methanol was diluted with the RPMI1640 culture medium and put to use.

The test system of test [2] is IL-2 production in PHA-stimulated mouse spleen cells. The test is described as follows: suppression of IL-2 production in PHA-stimulated mouse spleen cells. The test is classed as cell-based. As for the experimental part: (§1) The suppression of IL-2 and IL-3 production in the mitogen-stimulated mouse spleen cells was examined as follows:
(§2) The spleen was resected from 5- to 8-week-old male C3H/HeN mice, and a single cell suspension of spleen cells was prepared by using the RPMI1640 culture medium. After hemolytic treatment, the concentration of the suspension was adjusted to 10^7 cells/ml by using the RPMI1640 culture medium supplemented with 20% FCS, to which 10 μg/ml of phytohemagglutinin (PHA) was added as mitogen. […] After termination of culture, the supernatant was collected and used as the culture supernatant of PHA-stimulated mouse spleen cells.
The IL-2 activity in the culture supernatant of PHA-stimulated mouse spleen cells was assayed as follows:
IL-2 dependent mouse cell line CTLL-2 cells were suspended in the RPMI1640 culture medium supplemented with 30% FCS to the concentration of 2×10^5 cells/ml. One hundred μl of the cell suspension and 100 μl of the two-fold serial dilution of the culture supernatant of PHA-stimulated mouse spleen cells were added to a 96-well flat-bottomed microtest plate. […] The IL-2 activity is expressed in U/ml as the dilution at which the absorbancy measured by MTT method was 50% of the maximum.

In test [3] the test system is IL-3 production in PHA-stimulated mouse spleen cells. The test is described as follows: suppression of IL-3 production in PHA-stimulated mouse spleen cells. The format is cell-based. As to the method:
as §1, §2
The IL-3 activity was assayed as follows:
IL-3-dependent mouse cell line FDC-P2 cells were suspended in the RPMI1640 culture medium supplemented with 10% FCS to the concentration of 2×10^5 cells/ml. One hundred μl of the cell suspension and 100 μl of the two-fold serial dilution of the culture supernatant of PHA-stimulated mouse spleen cells described above were added to a 96-well flat-bottomed microtest plate. […] The IL-3 activity is expressed in U/ml as the dilution at which the absorbancy measured by MTT method was 50% of the maximum.

The subject of test [4] is allo-specific cytotoxic antibody in serum of EL4-immunized BALB/c mice. The test is described as follows: suppression of allo-specific cytotoxic antibody production induced by allogenic cell immunization of mouse. The format is in vivo. As to the method: Male 5- to 7-week-old BALB/c mice were immunized with leukemia cell EL4 derived from C57BL/6 mice (10^7 cells/mouse, intraperitoneal administration) in the same way as in Experiment Example 9, and the […] Nine to ten days after immunization, a serum was collected from the mice. Fifty μl of the two-fold serial dilution of the serum, 50 μl of a guinea pig complement and EL4 cell suspension labelled with ^51 Cr as the target cell (5×10^4 cells/ml, 100 μl) were together added to a 96-well microtest plate. After incubation at 37° C. for 1 hour, the amount of ^51 Cr released in the supernatant was measured, and the complement-dependent cytotoxicity was calculated by the following formula. [formula]
The value of allo-specific cytotoxic antibody determined as above was expressed by the titer calculated on the basis of the concentration at which the releasing amount of ^51 Cr was 50% of that of ^51 Cr-labelled target cells treated with 0.1 N HCl.

Test [5] concerns allo-reactive cytotoxic T cells in spleen of EL4-immunized BALB/c mice. The experiment in a line: suppression of allo-reactive cytotoxic T cells induced by immunization of mouse with allogenic cells. The following applies: Table 9F. The test is classed as in vivo. As for the experimental part: Male 5- to 7-week-old BALB/c mice (H-2^d) were immunized with leukemia cell EL4 derived from C57BL/6 mice (H-2^b) (10^7 cells/mouse, intraperitoneal administration), and the test substance was administered intraperitoneally 5 times at the doses of 0.001 to 3 mg/kg/day or orally at the doses of 0.3 to 10 mg/kg/day from the day of immunization. Nine to ten days after immunization, the spleen was resected from the mice to prepare a single cell suspension and the suspension was used as effector cell suspension. The ^51 Cr-release assay was carried out in the same way as in Experiment Example 3, using EL4 cells as the target cells to measure the cytotoxic activity.
The activity of allo-reactive cytotoxic T cell is indicated by lytic unit (LU) per spleen. One lytic unit (LU) is defined as the number of effector cells required to cause 25% lysis of 5×10^3 target cells. At the same time, the body weight of mouse and number of spleen cells were also determined.

The mark [6] stands for this setting: Mus musculus, 24 h, 0.001 μg/ml, read-out: Suppression.
[7] abbreviates: Mus musculus, 24 h, 0.01 μg/ml, read-out: Suppression.
The mark [8] stands for this setting: Mus musculus, 24 h, 0.1 μg/ml, read-out: Suppression.
Where [9] appears, read: Mus musculus, 24 h, 1 μg/ml, read-out: Suppression.
Setting [10] is: 0.003 mg/kg/day iv × 9, Table 10F.
The mark [11] stands for this setting: 0.01 mg/kg/day iv × 9, Table 10F.
[12] abbreviates: 0.03 mg/kg/day ip × 5, Table 10E.
Setting [13] is: 0.03 mg/kg/day iv × 9, Table 10F.
Setting [14] is: 0.1 mg/kg/day ip × 5, Table 10E.
The mark [15] stands for this setting: 0.1 mg/kg/day iv × 9, Table 10F.
The mark [16] stands for this setting: 0.3 mg/kg/day ip × 5, Table 10E.
Setting [17] is: 0.3 mg/kg/day iv × 9, Table 10F.

SMILES strings stand for the structures. Converted amounts (≈) assume the structure as drawn. Where a name gives a salt, the structure may show the parent alone.

Turning to `N[C@](CO)(C(=O)O)[C@@H](O)[C@H](O)CCO` [Example 6], the 3H-thymidine uptake is given as 16771 cpm in test [1] (0.0001 μg/ml, Table 1A); 13692 cpm in test [1] (0.001 μg/ml, Table 1A); 13806 cpm in test [1] (0.01 μg/ml, Table 1A); 14508 cpm in test [1] (0.1 μg/ml, Table 1A); 7545 cpm in test [1] (1 μg/ml, Table 1A). The inhibition at 0.0001 µg/mL in test [1] (Mus musculus, Lymphocyte, 0.0001 μg/ml, Table 1A, read-out: Suppression) turned out to be 9.9%. Also, the inhibition at 0.001 µg/mL in test [1] (Mus musculus, Lymphocyte, 0.001 μg/ml, Table 1A, read-out: Suppression) was 18.5%; in test [2] (setting [6]), 6.7%; in test [3] (setting [6]), 2.9%. For the same compound, the inhibition at 0.01 µg/mL came out at 27.5% in test [1] (Mus musculus, Lymphocyte, 0.01 μg/ml, Table 1A, read-out: Suppression); 24.4% in test [2] (setting [7]); 4.5% in test [3] (setting [7]). The inhibition at 0.1 µg/mL in test [1] (Mus musculus, Lymphocyte, 0.1 μg/ml, Table 1A, read-out: Suppression) is 23.4%; in test [2] (setting [8]), 29.6%; in test [3] (setting [8]), 4.9%. Further, the inhibition at 1 µg/mL amounted to 64.8% in test [1] (Mus musculus, Lymphocyte, 1 μg/ml, Table 1A, read-out: Suppression); 38.5% in test [2] (setting [9]); 18.4% in test [3] (setting [9]). Also, in test [1] (Mus musculus, Lymphocyte, read-out: 50%-inhibition concentration (IC50) in mouse allogenic MLR), the IC50 was found to be 0.045 µg/mL (≈ 0.215 µM). Also, the IL-2 activity in test [2] (0.001 μg/ml) was 12.6 U/ml; in test [2] (0.01 μg/ml), 10.2 U/ml; in test [2] (0.1 μg/ml), 9.5 U/ml; in test [2] (1 μg/ml), 8.3 U/ml. In addition, the IL-3 activity in test [3] (0.001 μg/ml) turned out to be 23.8 U/ml; in test [3] (0.01 μg/ml), 23.4 U/ml; in test [3] (0.1 μg/ml) it was 23.3 U/ml; in test [3] (1 μg/ml), 20.0 U/ml.

Consider `CCCCCCCCCCCCC/C=C/C[C@@H](O)[C@H](O)[C@@](N)(CO)C(=O)O` [potassium salt of compound of Example 5], for which the 3H-thymidine uptake in test [1] (0.0001 μg/ml, Table 1B) is reported as 5622 ± 898 cpm; in test [1] (0.001 μg/ml, Table 1B), 4984 ± 3755 cpm; in test [1] (0.01 μg/ml, Table 1B), 1324 ± 16 cpm; in test [1] (0.1 μg/ml, Table 1B) it was 787 ± 257 cpm; in test [1] (1 μg/ml, Table 1B), 783 ± 28 cpm. In addition, the Suppression in test [1] (0.0001 μg/ml, Table 1B) is 0%; in test [1] (0.001 μg/ml, Table 1B), 7.5%; in test [1] (0.01 μg/ml, Table 1B) it was 85.5%; in test [1] (0.1 μg/ml, Table 1B) it was 97.0%; in test [1] (1 μg/ml, Table 1B) it was 97.1%.

On to `CCCCCCCCCCCCC/C=C/C[C@@H](O)[C@H](O)[C@@](N)(CO)C(=O)O` [sodium salt of the compound of Example 5], for which the “Allogenic cell-specific antibody in serum, suppression” value in test [4] (setting [10]) is reported as 6.0%; in test [4] (setting [11]), 39.4%; in test [4] (setting [12]), 50.3%; in test [4] (setting [13]), 68.5%; in test [4] (setting [14]) it was 73.5%; in test [4] (setting [15]) it was 84.1%. The “Allogenic cell-specific antibody in serum, suppression” value in test [4] (setting [16]) is recorded as 88.9%; in test [4] (setting [17]), 81.7%. The “Allogenic cell-specific antibody in serum, titer” value in test [4] (setting [10]) was 236 ± 76; in test [4] (setting [11]), 152 ± 27; in test [4] (setting [12]) it was 94 ± 14; in test [4] (setting [13]) it was 79 ± 50; in test [4] (setting [14]), 50 ± 4; in test [4] (setting [15]), 40 ± 23. The “Allogenic cell-specific antibody in serum, titer” value is recorded as 21 ± 8 in test [4] (setting [16]) and 46 ± 11 in test [4] (setting [17]). Also, in test [4] (Table 10E), the “production of allo-specific cytotoxic antibody, sodium salt relative to the compound of Example 5 (in words)” value is listed as “suppressive activity almost equivalent to that of the compound of Example 5 other than sodium salt”. The “induction of allo-reactive cytotoxic T cells, sodium salt relative to the compound of Example 5 (in words)” value in test [5] is reported as “suppressive activity almost equivalent to that of the compound of Example 5 other than sodium salt”. In addition, in test [1] (Table 1B), the “suppressive activity of the sodium salt relative to that of the compound of Example 5” value is reported as “almost the equivalent suppressive activity”.

For the origin of these results see US5068247A, “2-aminopentanoic acid compounds and their use as immunosuppressants” (priority 1989, dated 1991).
